Reference: publication PMC12744750 (Plant Communications, 2025)
Ends that are not written are not given here.

Tests used:
[1] = system: ETR1:HA; experiment: Co-immunoprecipitation of PLS:GFP and ETR1:HA in N. benthamiana leaves; assay type: binding, Arabidopsis; settings: Co-IP, western blotting, 3 days after infiltration
Excerpt: To investigate the interaction between the PLS peptide and the ethylene receptor ETR1, two DNA constructs were created by Gateway cloning. The […] PLS gene (without the stop codon) was inserted into the pEarlyGate103 (pEG103) destination vector, which contained the pro35S promoter and a C-terminal GFP tag, to produce a vector containing pro35S::PLS:GFP DNA. The ETR1 cDNA was inserted into the pEarlyGate301 (pEG301) vector to create a pro35S::ETR1:HA construct to express an ETR1 protein with a C-terminal HA tag. pro35S::GFP was used as a control. The primers used to clone ETR1 and PLS are found in supplemental Table 9.
Constructs were transiently expressed in N. benthamiana (tobacco) leaves as described previously ([Voinnet et al., 2003]). Experiments were replicated up to five times. Competent Agrobacterium tumefaciens GV3101 cells were transformed with the desired plasmid containing the gene of interest and injected with a syringe. The plants were approximately 7–10 weeks old; the chosen leaves were healthy and 3–6 cm in length, and 3 to 4 leaves were infiltrated with each construct. […]
SDS–PAGE was used to separate protein fragments. The complexed proteins from the pulldown assay were analyzed on 10%–12% acrylamide gels. […] The horseradish peroxidase conjugated to the secondary antibody was detected using X-ray film. […]

[2] = system: root epidermal cells, endomembrane markers; experiment: Subcellular localization by confocal microscopy; assay type: cell-based, Arabidopsis
Excerpt: (§1) proPLS::PLS:GFP comprises a 1.5-kb PLS promoter sequence ([Casson et al., 2002]) fused to the PLS open reading frame in pMDC107 (obtained from Prof. P.J. Hussey, Durham University) as a C-terminal GFP translational fusion. The PLS ORF with its 1.5-kb promoter was amplified from the TOPO 2.1 vector, which contained the PLS gene sequence with promoter ([Casson et al., 2002]); the primers used for cloning are listed in supplemental Table 9. pls mutant plants were transformed using the method of [Clough and Bent (1998)]. proPLS::GFP plants were generated using the 1.5-kb PLS promoter ([Casson et al., 2002]) fused to GFP in a wild-type background. p35S::GFP seedlings were obtained from Dr. Piers Hemsley, Durham University. […] Seedlings were scanned to create a digital image, and root lengths of the seedlings were measured using ImageJ. […]
CSLM images for propidium iodide and GFP were obtained using a Leica SP5 TCS confocal microscope as described previously ([Rowe et al., 2016]). proPLS::PLS:GFP, proPLS::GFP, and pro35S::GFP seedlings were grown for 7 days on Phytagel ½ MS10 medium before ∼25 mm of the root tip was removed and mounted in dH2O prior to imaging. […] For standard photomultiplier tubes, a laser power of 21% and a smart gain of 800–1000 mV were used, depending on the intensity of the fluorescence. […]

[3] = system: pls mutant; experiment: Complementation of pls mutant by proPLS::PLS:GFP transgene; assay type: in vivo, Arabidopsis thaliana; settings: single-copy proPLS::PLS:GFP in pls background
Excerpt: as §1, with “University. Seedlings of Arabidopsis thaliana ecotype C24 or Col-0, pls mutants, and transgenic PLS overexpressers, all from lab stocks, were grown on solid sterile half-strength (2.2 g/l) Murashige and Skoog medium (Sigma-Aldrich) containing 10 g/l sucrose (half-strength [½] MS10 medium) solidified with 2.5 g/l Phytagel (Sigma-Aldrich) in 90-mm Petri dishes (Sarstedt, Leicester, UK) at 21°C under a 16-h photoperiod as described previously ([Casson et al., 2002]; [Chilley et al., 2006]).” for “University.”

[4] = system: pls mutant primary root; experiment: Root length of pls mutant under exogenous copper; assay type: in vivo, Arabidopsis thaliana; settings: 0-50 μM CuSO4, 12 days, n = 18
Excerpt: as §1
Root length (n = 18 from samples grown on 3 independent plates) was measured after 12 days using ImageJ. […]

PLS:GFP: fusion protein of PLS with C-terminal GFP (MKPRLCFNFRRRSISPCYISISYLLVAKLFKLFKIH-{GFP}; cysteine pairing not given here)
binding of ETR1:HA [1]: ETR1:HA bound to PLS:GFP | co-localization with RFP:HDEL (ER lumen) ([2]; proPLS::PLS:GFP plants): co-localized with the ER lumen–targeted red fluorescent protein RFP:HDEL | co-localization with ER Tracker Red ([2]; proPLS::PLS:GFP stably transformed Arabidopsis): co-localized with the ER marker dye ER-Tracker Red | transformants fully complementing pls mutant [3]: four

copper
copper hypersensitivity of pls mutant [4]: not copper hypersensitive
